Patent US20130315849A1, “USE OF 13-HYDROXY-9,11-OCTADECADIENOIC ACID FOR TANNING HUMAN SKIN” (EVONIK GOLDSCHMIDT GMBH, priority 2010, published 2013)

Experiments:
POMC [1] = test: Basal (not UV-induced) POMC gene expression in keratinocytes (qRT-PCR); format: cell-based, human; conditions: NHEKs, 10 μg/ml 13-HODE, no UV, 24 h + 24 h; standardized to 18S rRNA
Experimental: In the present example, the effect of 13-HODE on the POMC gene expression was investigated in keratinocytes which, in contrast to Example 1, have not been stimulated by prior UV exposure. For this purpose, firstly primary human epidermal keratinocytes were prepared from neonatal foreskin. The procedure is described in the following publications: Grether-Beck et al., J Invest Dermatol 2005, 125: 545-553; Grether-Beck et al., Exp Dermatol 2008, 17: 771-779. […]
The isolation of the whole-RNA and also the subsequent analysis of the gene expression by means of quantitative Real Time PCR (qRT-PCR) was carried out as described previously (Grether-Beck et al., J Invest Dermatol 2005, 125: 545-553; Grether-Beck et al., Exp Dermatol 2008, 17: 771-779). […] The RNA concentration was determined by means of photometric measurement at 260/280 nm (Biophotometer, Eppendorf, Germany). […] Besides the POMC expression, the expression of the 18s rRNA gene was also quantitatively determined as a reference. […]
The PCR reactions were carried out on an Opticon 1 (MJ Research, Waltham, Mass., USA). For all PCRs, double determinations of the biological triplicates were carried out, and for the evaluation averages of all measurements were calculated. […]

TNF-α = test: UV-stimulated induction of TNF-α gene expression in keratinocytes (qRT-PCR); format: cell-based, human; conditions: NHEKs, UV-B exposed, treated with 13-HODE as in Example 1; UV alone induction factor 7.4
Description: (§1) In the present example, the effect of 13-HODE on the expression of various proinflammatory marker genes in UV-B-stimulated keratinocytes (normal human epidermal keratinocytes, NHEKs) was investigated. The experimental procedure was largely identical to the procedure described in Example 1. Differences consisted merely in the selection of the gene-specific primers for carrying out the quantitative Real-Time PCR.

human skin = test: Human in vivo study, maintenance of the skin tan (colorimetric skin colour); conditions: 39 people, forearm, twice daily for 56 days, formulations with 0.1, 0.4, 1.0% 13-HODE vs formulation without
Experimental: In order to test to what extent 13-HODE has an influence on maintaining the skin tan, the maintenance of the summer tan under the influence of 13-HODE in test formulations was investigated in a clinical study. The study was carried out over a period of 8 weeks from mid-September to mid-November in Germany. The subject of the investigation was the skin colour by means of colorimetric measurements using a Skin-Colorimeter® CL 400 from Courage+Khazaka electronic GmbH, Cologne, Germany. The measurements were made in each case on the inside of the left and right forearm on a defined area measuring 3 cm×3 cm at a distance of 11-14 cm from the wrist. The average value, which resulted from the individual values of six to nine repeat measurements, was registered. 39 people aged 21-55 years participated, of which 28 were female and 11 male. In each case, the starting value of the skin colour TO was determined prior to the treatment and the value T8 was determined after treatment for 56 days with test formulations. The application frequency was twice daily, morning and evening. The test persons were given one formulation for the left arm and one for the right arm (formulation A, B, C, D; as per the table below).

COX2 = test: UV-stimulated induction of COX2 gene expression in keratinocytes (qRT-PCR); format: cell-based, human; conditions: NHEKs, UV-B exposed, treated with 13-HODE as in Example 1; UV alone induction factor 2.5
Description: as §1

POMC [2] = test: UV-B-induced POMC gene expression in keratinocytes (qRT-PCR); format: cell-based, human; conditions: NHEKs, 3 μg/ml 13-HODE, 160 J/m^2 UV-B, harvest 6 h after exposure; standardized to 18S rRNA; UV alone factor 1.8; p<0.01
Experimental: In the present example, the effect of 13-HODE on the POMC gene expression in UV-B-stimulated keratinocytes (normal human epidermal keratinocytes, NHEKs) was investigated. For this purpose, firstly primary human epidermal keratinocytes were prepared from neonatal foreskin. The procedure is described in the following publications: Grether-Beck et al., J Invest Dermatol 2005, 125: 545-553; and Grether-Beck et al., Exp Dermatol 2008, 17: 771-779. […]
After cultivation for 24 hours, the cells were exposed to a dose of 160 J/m^2 of UV-B radiation. […] The emitted power was determined using an IL 1700 Research Radiometer and SEE 240 UV-B photodetector (International Light Inc., Newbury Port, Mass.) and was 2.4 W/m^2 at a distance of 22 cm. […]
Isolation of whole-RNA and subsequent analysis of the gene expression by means of quantitative Real Time PCR (qRT-PCR) was carried out as described previously (Grether-Beck et al., J Invest Dermatol 2005, 125: 545-553; Grether-Beck et al., Exp Dermatol 2008, 17: 771-779). […] The RNA concentration was determined by means of photometric measurement at 260/280 nm (Biophotometer, Eppendorf, Germany). […] Besides the POMC expression, the expression of the 18s rRNA gene was also determined quantitatively as a reference. […]

IL-8 = test: UV-stimulated induction of IL-8 gene expression in keratinocytes (qRT-PCR); format: cell-based, human; conditions: NHEKs, UV-B exposed, treated with 13-HODE as in Example 1; UV alone induction factor 11.2
Description: as §1

IL-6 = test: UV-stimulated induction of IL-6 gene expression in keratinocytes (qRT-PCR); format: cell-based, human; conditions: NHEKs, UV-B exposed, treated with 13-HODE as in Example 1; UV alone induction factor 10.1
Description: as §1

For `CCCCCC(O)C=CC=CCCCCCCCC(=O)O` (centres unmarked) [13-HODE, 13-hydroxy-9,11-octadecadienoic acid], the “basal (not UV-stimulated) POMC expression compared to the control treated with the vehicle (DMSO)” value (POMC [1]) was 1.2 fold, the “expression level of TNF-α in UV-exposed cells” value (TNF-α) was “considerably reduced expression level” and the “decrease in the blue-yellow parameter b* of the skin colour” value (human skin) was “reduced to differing degrees”. For the same compound, the “increase in the parameter ITA° of the skin colour” value (human skin) was “reduced to differing degrees”, the “expression level of COX2 in UV-exposed cells” value (COX2) was “considerably reduced expression level” and the “POMC expression increased by a factor compared to the untreated control” value (POMC [2]) was 4.9. For the same compound, the “expression level of IL-8 in UV-exposed cells” value (IL-8) was “considerably reduced expression level” and the “expression level of IL-6 in UV-exposed cells” value (IL-6) was “considerably reduced expression level”.
